One compound from ChEMBL document CHEMBL5030514, “Discovery of Anti-TNBC Agents Targeting PTP1B: Total Synthesis, Structure-Activity Relationship, In Vitro and In Vivo Investigations of Jamunones” (J Med Chem, 2021) can be followed below.

Molecules are shown by their SMILES. The source made the active and inactive calls. The calls are words filed in the database; no cut-off is given here.

Common to all, as to assay type: functional, cell-based
Assay [1] relates to MCF7. The assay is described as follows: Antiproliferative activity against human MCF-7 cells assessed as effect on cell viability at 1.67-15 uM for 24 hrs measured by MTT assay. In general terms: Tetrazolium assays rely on reduction of a dye to a coloured formazan, in cell work by metabolically active cells.
The test system of assay [2] is MCF7. The assay can be described thus: Induction of apoptosis in human MCF-7 cells assessed as upregulation of cleaved poly(ADP-ribose) polymerase level at 1.67 to 15 uM measured after 24 hrs by Western blot analysis. Conditions: dose 1.67-15 µM. Background: Immunoblotting shows a protein as a band on a membrane.
Assay [3] relates to MDA-MB-231. The assay can be described thus: Induction of mitochondrial apoptosis in human MDA-MB-231 cells assessed as formation of apoptotic bodies by Hoechst 33258 staining based fluorescence microscopic assay.
The subject of assay [4] is MCF7. The assay can be described thus: Induction of apoptosis in human MCF-7 cells assessed as increase in production of cleaved caspase-9 at 1.67 to 15 uM measured after 24 hrs by Western blot analysis. Conditions: dose 1.67-15 µM.
Assay [5] has as its system MDA-MB-231. The assay can be described thus: Induction of mitochondrial apoptosis in human MDA-MB-231 cells assessed as accumulation of reactive oxygen species by flow cytometry.
Assay [6] has as its system MDA-MB-231. The assay can be described thus: Induction of mitochondrial apoptosis in human MDA-MB-231 cells assessed as chromatin shrinkage by Hoechst 33258 staining based fluorescence microscopic assay.
Assay [7] has as its system MCF7. The assay is described as follows: Induction of apoptosis in human MCF-7 cells assessed as increase in Bax protein expression at 1.67 to 15 uM measured after 24 hrs by Western blot analysis. The settings on record: dose 1.67-15 µM.
Assay [8] deals with MDA-MB-231. The assay is described as follows: Inhibition of PTP1B expression in human MDA-MB-231 cells by Western blot analysis.

Consider `CCCC/C=C/CCCCCCCCCC1(O)CC(=O)c2c(O)c(C)c(O)c(C)c2O1` (stereo not drawn), for which the result with MCF7 [1] was inactive. For the same compound, the result with MCF7 [2], with MDA-MB-231 [3], in the assay on MDA-MB-231 [5], with MDA-MB-231 [6] and with MDA-MB-231 [8] was Active. Also, the Activity result in the assay on MCF7 [4] and in the assay with MCF7 [7] was “Dose-Dependent Effect” throughout.
